The text below walks through data of patent US20260008787A1, “FUSED RING KRAS INHIBITORS FOR TREATING DISEASE” (BLOSSOMHILL THERAPEUTICS, INC., priority 2022, published 2026).

Format in all cases: cell-based
What all share (details): 384-well, CellTiter-Glo 2.0
(In ATP-based viability assays light output follows the ATP content of the culture.)

One experiment has as its system SW620 (KRAS G12V). The experiment in a line: Cell proliferation assay (CellTiter-Glo, 72 hours), SW620. On the procedure:
(§1) Two thousand KRAS mutant cells per well were seeded in 384-well white plate and then treated with indicated compounds for 72 hours at 37° C. and 5% CO2. Cell proliferation was measured using CellTiter-Glo 2.0 luciferase-based ATP detection assay (Promega, Madison, WI) following the manufacturer's protocol. IC50 values were determined using Prism software (GraphPad Software, San Diego, CA).

A further experiment concerns GP2D (KRAS G12D). The experiment in a line: Cell proliferation assay (CellTiter-Glo, 72 hours), GP2D. On the procedure:
as §1

A further experiment deals with AGS (G12D). The experiment in a line: Cell proliferation assay (CellTiter-Glo, 72 hours), AGS. The method, then: as §1

As for `C#Cc1c(F)ccc2cc(O)cc(-c3nc4c5c(nc(OC[C@@]67CCCN6C/C(=C\F)C7)nc5c3F)N3CCCC[C@H]3CO4)c12` [Example 76, 5-ethynyl-6-fluoro-4-[(8aS)-4-fluoro-2-{[(2Z,7aS)-2-(fluoromethylidene)tetrahydro-1H-pyrrolizin-7a(5H)-yl]methoxy}-8,8a,9,10,11,12-hexahydro-7-oxa-1,3,6,12a-tetraazabenzo[4,5]cyclohepta[1,2,3-de]naphthalen-5-yl]naphthalen-2-ol], the 50% inhibitory concentration (IC50) (as a rule, the midpoint of a concentration-inhibition curve) was 11.6 nM in the experiment with SW620 (KRAS G12V), 3.35 nM in the experiment with GP2D (KRAS G12D) and 12.3 nM in the experiment on AGS (G12D).
In the case of `C#Cc1c(F)ccc2cc(O)cc(-c3nc4c5c(nc(OC[C@@]67CCCN6C[C@H](F)C7)nc5c3F)N(CC)CCO4)c12` [Example 108, 4-(10-ethyl-4-fluoro-2-{[(2R,7aS)-2-fluorotetrahydro-1H-pyrrolizin-7a(5H)-yl]methoxy}-9,10-dihydro-8H-7-oxa-1,3,6,10-tetraazacyclohepta[1,2,3-de]naphthalen-5-yl)-5-ethynyl-6-fluoronaphthalen-2-ol], the IC50 in the experiment with SW620 (KRAS G12V) (Homo sapiens, SW-620, 72 h) turned out to be 195 nM; in the experiment with GP2D (KRAS G12D) (GP2d, 72 h), 13.8 nM; in the experiment with AGS (G12D) (72 h), 42.7 nM.
As for `CCc1c(F)ccc2cc(O)cc(-c3nc4c5c(nc(OC[C@@]67CCCN6C[C@H](F)C7)nc5c3F)N(C)C3(CCOC3)CO4)c12` (stereo partly drawn) [Example 132, 5-ethyl-6-fluoro-4-(4-fluoro-2-{[(2R,7aS)-2-fluorotetrahydro-1H-pyrrolizin-7a(5H)-yl]methoxy}-10-methyl-8H,10H-spiro[7-oxa-1,3,6,10-tetraazacyclohepta[1,2,3-de]naphthalene-9,3′-oxolan]-5-yl)naphthalen-2-ol], the half-maximal inhibitory concentration (IC50) is 1380 nM in the experiment with SW620 (KRAS G12V) (Homo sapiens, SW-620, 72 h); more than 3000 nM in the experiment on GP2D (KRAS G12D) (GP2d, 72 h); more than 3000 nM in the experiment on AGS (G12D) (72 h).
Take `C#Cc1c(F)ccc2cc(O)cc(-c3nc4c5c(nc(OC[C@@]67CCCN6C[C@H](F)C7)nc5c3F)N3C[C@@H](O)CC[C@@H]3CO4)c12` [Example 94, (8aR,11S)-5-(8-ethynyl-7-fluoro-3-hydroxynaphthalen-1-yl)-4-fluoro-2-{[(2R,7aS)-2-fluorotetrahydro-1H-pyrrolizin-7a(5H)-yl]methoxy}-8,8a,9,10,11,12-hexahydro-7-oxa-1,3,6,12a-tetraazabenzo[4,5]cyclohepta[1,2,3-de]naphthalen-11-ol]: the IC50 with SW620 (KRAS G12V) (Homo sapiens, SW-620, 72 h) is more than 3000 nM; with GP2D (KRAS G12D) (GP2d, 72 h) it was 1100 nM; in the experiment on AGS (G12D) (72 h), more than 3000 nM.
With `C#Cc1c(F)ccc2cc(O)cc(-c3nc4c5c(nc(OC[C@@]67CCC[N+]6(C)C[C@H](F)C7)nc5c3F)N[C@@H](C)CO4)c12` (stereo partly drawn) [Example 77, (2R,7aS)-7a-({[(9S)-5-(8-ethynyl-7-fluoro-3-hydroxynaphthalen-1-yl)-4-fluoro-9-methyl-9,10-dihydro-8H-7-oxa-1,3,6,10-tetraazacyclohepta[1,2,3-de]naphthalen-2-yl]oxy}methyl)-2-fluoro-4-methylhexahydro-1H-pyrrolizin-4-ium], the IC50 was more than 3000 nM in the experiment with SW620 (KRAS G12V) (Homo sapiens, SW-620, 72 h); 1350 nM in the experiment on GP2D (KRAS G12D) (GP2d, 72 h); more than 3000 nM in the experiment with AGS (G12D) (72 h).
Turning to `C#Cc1c(F)ccc2cc(O)cc(-c3nc4c5c(nc(OC[C@@]67CCCN6C[C@H](F)C7)nc5c3F)N(C[C@@H](C)O)[C@@H](C)CO4)c12` [Example 130, 5-ethynyl-6-fluoro-4-((S)-4-fluoro-2-(((2R,7aS)-2-fluorotetrahydro-1H-pyrrolizin-7a(5H)-yl)methoxy)-10-((R)-2-hydroxypropyl)-9-methyl-9,10-dihydro-8H-7-oxa-1,3,6,10-tetraazacyclohepta[de]naphthalen-5-yl)naphthalen-2-ol], the IC50 is 131 nM with SW620 (KRAS G12V) (Homo sapiens, SW-620, 72 h); 115 nM with GP2D (KRAS G12D) (GP2d, 72 h); 197 nM in the experiment on AGS (G12D) (72 h).
